These compounds were tested on 843126-344-R-J1-PDC complex spheroid viability (assay: Anticancer human tumor 843126-344-R-J1-PDC patient-derived melanoma cell line growth inhibition [POLQ]). Details: second compound 1 µM; first compound 0.1 µM; hits give low values.
How it was run: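 Growth inhibition in 3D: complex spheroids (tumor PDC, HUVEC, MSC) treated with POLQ inhibitor combinations; where Cmax unknown, highest tested concentration 10 microM, except SN-38 at 1 microM.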
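Note: spheroids exposed to drugs for seven days before readout.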

**Q.** Which viability, T/C does the source give for `COc1cccc(OCCCN)c1-c1cc(Nc2cnc(C#N)cn2)n[nH]1` + COC1C(OC(N)=O)C(O)C(Oc2ccc3c(O)c(NC(=O)c4ccc(O)c(CC=C(C)C)c4)c(=O)oc3c2C)OC1(C)C here?
**A.** The viability, T/C was 64.7%.

**Q.** Which viability, T/C does the source give for `CC1COCCN1c1cc(C2(S(C)(=N)=O)CC2)nc(-c2ccnc3[nH]ccc23)n1` (configuration not stated) + COC1C(OC(N)=O)C(O)C(Oc2ccc3c(O)c(NC(=O)c4ccc(O)c(CC=C(C)C)c4)c(=O)oc3c2C)OC1(C)C here?
**A.** The viability, T/C was 88.3%.

**Q.** With `Cn1ncnc1[C@H]1c2n[nH]c(=O)c3cc(F)cc(c23)N[C@@H]1c1ccc(F)cc1` + COC1C(OC(N)=O)C(O)C(Oc2ccc3c(O)c(NC(=O)c4ccc(O)c(CC=C(C)C)c4)c(=O)oc3c2C)OC1(C)C as the compound, how does the viability, T/C read?
**A.** The viability, T/C was 76.1%.

**Q.** With `CC1COCCN1c1cc(-c2ccnn2C)c2ccnc(-c3ccn[nH]3)c2n1` (configuration not stated) + COC1C(OC(N)=O)C(O)C(Oc2ccc3c(O)c(NC(=O)c4ccc(O)c(CC=C(C)C)c4)c(=O)oc3c2C)OC1(C)C as the compound, how does the viability, T/C read?
**A.** The viability, T/C was 77.5%.

**Q.** `COc1ccc([C@@H](O)c2cc(-c3ncnc4cc(N5CCOCC5)ccc34)c(F)cc2Cl)nn1` + Nc1ccc(C#CCN(C(=O)Cc2ncc(C(F)(F)F)cc2C(F)(F)F)c2ccc(F)cc2)nn1 was tested. Which viability, T/C did it give?
**A.** Its viability, T/C is 102%.

Same assay, conditions: second compound 1 µM; first compound 0.316 µM; hits give low values

**Q.** How did the viability, T/C turn out when `COc1cc(C2c3cc4c(cc3C(OC3OC5COC(C)OC5C(O)C3O)C3COC(=O)C23)OCO4)cc(OC)c1O` (configuration not stated) + Cc1cccc(N(C)C(=O)C2C(O)CCN2c2nc(C)cc(C(F)(F)F)c2C#N)c1 was run?
**A.** The viability, T/C was 86.6%.

**Q.** For `COc1cccc(OCCCN)c1-c1cc(Nc2cnc(C#N)cn2)n[nH]1` + COC1C(OC(N)=O)C(O)C(Oc2ccc3c(O)c(NC(=O)c4ccc(O)c(CC=C(C)C)c4)c(=O)oc3c2C)OC1(C)C, which viability, T/C is on record?
**A.** Its viability, T/C is 52%.

**Q.** For `CC1COCCN1c1cc(C2(S(C)(=N)=O)CC2)nc(-c2ccnc3[nH]ccc23)n1` (configuration not stated) + COC1C(OC(N)=O)C(O)C(Oc2ccc3c(O)c(NC(=O)c4ccc(O)c(CC=C(C)C)c4)c(=O)oc3c2C)OC1(C)C, which viability, T/C is on record?
**A.** Its viability, T/C is 78.5%.

**Q.** `CC1COCCN1c1cc(-c2ccnn2C)c2ccnc(-c3ccn[nH]3)c2n1` (configuration not stated) + COC1C(OC(N)=O)C(O)C(Oc2ccc3c(O)c(NC(=O)c4ccc(O)c(CC=C(C)C)c4)c(=O)oc3c2C)OC1(C)C was tested. Which viability, T/C did it give?
**A.** The viability, T/C was 71.3%.

**Q.** With `COc1ccc([C@@H](O)c2cc(-c3ncnc4cc(N5CCOCC5)ccc34)c(F)cc2Cl)nn1` + Nc1ccc(C#CCN(C(=O)Cc2ncc(C(F)(F)F)cc2C(F)(F)F)c2ccc(F)cc2)nn1 as the compound, how does the viability, T/C read?
**A.** Its viability, T/C is 91.8%.

Same assay, conditions: second compound 1 µM; first compound 1 µM; hits give low values

**Q.** Which viability, T/C does the source give for `COc1cc(C2c3cc4c(cc3C(OC3OC5COC(C)OC5C(O)C3O)C3COC(=O)C23)OCO4)cc(OC)c1O` (configuration not stated) + Cc1cccc(N(C)C(=O)C2C(O)CCN2c2nc(C)cc(C(F)(F)F)c2C#N)c1 here?
**A.** Its viability, T/C is 82.3%.

**Q.** How did the viability, T/C turn out when `COc1cccc(OCCCN)c1-c1cc(Nc2cnc(C#N)cn2)n[nH]1` + COC1C(OC(N)=O)C(O)C(Oc2ccc3c(O)c(NC(=O)c4ccc(O)c(CC=C(C)C)c4)c(=O)oc3c2C)OC1(C)C was run?
**A.** The viability, T/C was 36.6%.

**Q.** For `CC1COCCN1c1cc(C2(S(C)(=N)=O)CC2)nc(-c2ccnc3[nH]ccc23)n1` (configuration not stated) + COC1C(OC(N)=O)C(O)C(Oc2ccc3c(O)c(NC(=O)c4ccc(O)c(CC=C(C)C)c4)c(=O)oc3c2C)OC1(C)C, which viability, T/C is on record?
**A.** The viability, T/C was 96.3%.

**Q.** Which viability, T/C does the source give for `CC1COCCN1c1cc(-c2ccnn2C)c2ccnc(-c3ccn[nH]3)c2n1` (configuration not stated) + COC1C(OC(N)=O)C(O)C(Oc2ccc3c(O)c(NC(=O)c4ccc(O)c(CC=C(C)C)c4)c(=O)oc3c2C)OC1(C)C here?
**A.** The viability, T/C was 53.5%.

**Q.** `COc1ccc([C@@H](O)c2cc(-c3ncnc4cc(N5CCOCC5)ccc34)c(F)cc2Cl)nn1` + Nc1ccc(C#CCN(C(=O)Cc2ncc(C(F)(F)F)cc2C(F)(F)F)c2ccc(F)cc2)nn1 was tested. Which viability, T/C did it give?
**A.** Its viability, T/C is 88.5%.

Same assay, conditions: second compound 1 µM; first compound 3.16 µM; hits give low values

**Q.** Which viability, T/C does the source give for `COc1cc(C2c3cc4c(cc3C(OC3OC5COC(C)OC5C(O)C3O)C3COC(=O)C23)OCO4)cc(OC)c1O` (configuration not stated) + Cc1cccc(N(C)C(=O)C2C(O)CCN2c2nc(C)cc(C(F)(F)F)c2C#N)c1 here?
**A.** The viability, T/C was 56.9%.

**Q.** For `CC1COCCN1c1cc(C2(S(C)(=N)=O)CC2)nc(-c2ccnc3[nH]ccc23)n1` (configuration not stated) + COC1C(OC(N)=O)C(O)C(Oc2ccc3c(O)c(NC(=O)c4ccc(O)c(CC=C(C)C)c4)c(=O)oc3c2C)OC1(C)C, which viability, T/C is on record?
**A.** Its viability, T/C is 69.2%.

**Q.** With `CC1COCCN1c1cc(-c2ccnn2C)c2ccnc(-c3ccn[nH]3)c2n1` (configuration not stated) + COC1C(OC(N)=O)C(O)C(Oc2ccc3c(O)c(NC(=O)c4ccc(O)c(CC=C(C)C)c4)c(=O)oc3c2C)OC1(C)C as the compound, how does the viability, T/C read?
**A.** Its viability, T/C is 36.3%.

**Q.** How did the viability, T/C turn out when `COc1ccc([C@@H](O)c2cc(-c3ncnc4cc(N5CCOCC5)ccc34)c(F)cc2Cl)nn1` + Nc1ccc(C#CCN(C(=O)Cc2ncc(C(F)(F)F)cc2C(F)(F)F)c2ccc(F)cc2)nn1 was run?
**A.** The viability, T/C was 74.5%.

Same assay, conditions: second compound 1 µM; first compound 10 µM; hits give low values

**Q.** `COc1cc(C2c3cc4c(cc3C(OC3OC5COC(C)OC5C(O)C3O)C3COC(=O)C23)OCO4)cc(OC)c1O` (configuration not stated) + Cc1cccc(N(C)C(=O)C2C(O)CCN2c2nc(C)cc(C(F)(F)F)c2C#N)c1 was tested. Which viability, T/C did it give?
**A.** The viability, T/C was 50.2%.

**Q.** With `CC1COCCN1c1cc(C2(S(C)(=N)=O)CC2)nc(-c2ccnc3[nH]ccc23)n1` (configuration not stated) + COC1C(OC(N)=O)C(O)C(Oc2ccc3c(O)c(NC(=O)c4ccc(O)c(CC=C(C)C)c4)c(=O)oc3c2C)OC1(C)C as the compound, how does the viability, T/C read?
**A.** The viability, T/C was 47.1%.

**Q.** With `CC1COCCN1c1cc(-c2ccnn2C)c2ccnc(-c3ccn[nH]3)c2n1` (configuration not stated) + COC1C(OC(N)=O)C(O)C(Oc2ccc3c(O)c(NC(=O)c4ccc(O)c(CC=C(C)C)c4)c(=O)oc3c2C)OC1(C)C as the compound, how does the viability, T/C read?
**A.** The viability, T/C was 32%.

**Q.** For `COc1ccc([C@@H](O)c2cc(-c3ncnc4cc(N5CCOCC5)ccc34)c(F)cc2Cl)nn1` + Nc1ccc(C#CCN(C(=O)Cc2ncc(C(F)(F)F)cc2C(F)(F)F)c2ccc(F)cc2)nn1, which viability, T/C is on record?
**A.** The viability, T/C was 64%.

Same assay, conditions: second compound 3.16 µM; first compound 0.000316 µM; hits give low values

**Q.** Which viability, T/C does the source give for `Cn1ncnc1[C@H]1c2n[nH]c(=O)c3cc(F)cc(c23)N[C@@H]1c1ccc(F)cc1` + COC1C(OC(N)=O)C(O)C(Oc2ccc3c(O)c(NC(=O)c4ccc(O)c(CC=C(C)C)c4)c(=O)oc3c2C)OC1(C)C here?
**A.** Its viability, T/C is 85.1%.

Same assay, conditions: second compound 3.16 µM; first compound 0.001 µM; hits give low values

**Q.** `Cn1ncnc1[C@H]1c2n[nH]c(=O)c3cc(F)cc(c23)N[C@@H]1c1ccc(F)cc1` + COC1C(OC(N)=O)C(O)C(Oc2ccc3c(O)c(NC(=O)c4ccc(O)c(CC=C(C)C)c4)c(=O)oc3c2C)OC1(C)C was tested. Which viability, T/C did it give?
**A.** Its viability, T/C is 99.1%.

Same assay, conditions: second compound 3.16 µM; first compound 0.00316 µM; hits give low values

**Q.** How did the viability, T/C turn out when `COc1cccc(OCCCN)c1-c1cc(Nc2cnc(C#N)cn2)n[nH]1` + COC1C(OC(N)=O)C(O)C(Oc2ccc3c(O)c(NC(=O)c4ccc(O)c(CC=C(C)C)c4)c(=O)oc3c2C)OC1(C)C was run?
**A.** The viability, T/C was 88.6%.

**Q.** How did the viability, T/C turn out when `Cn1ncnc1[C@H]1c2n[nH]c(=O)c3cc(F)cc(c23)N[C@@H]1c1ccc(F)cc1` + COC1C(OC(N)=O)C(O)C(Oc2ccc3c(O)c(NC(=O)c4ccc(O)c(CC=C(C)C)c4)c(=O)oc3c2C)OC1(C)C was run?
**A.** Its viability, T/C is 101%.

Same assay, conditions: second compound 3.16 µM; first compound 0.01 µM; hits give low values

**Q.** Which viability, T/C does the source give for `COc1cccc(OCCCN)c1-c1cc(Nc2cnc(C#N)cn2)n[nH]1` + COC1C(OC(N)=O)C(O)C(Oc2ccc3c(O)c(NC(=O)c4ccc(O)c(CC=C(C)C)c4)c(=O)oc3c2C)OC1(C)C here?
**A.** Its viability, T/C is 85.2%.

**Q.** For `Cn1ncnc1[C@H]1c2n[nH]c(=O)c3cc(F)cc(c23)N[C@@H]1c1ccc(F)cc1` + COC1C(OC(N)=O)C(O)C(Oc2ccc3c(O)c(NC(=O)c4ccc(O)c(CC=C(C)C)c4)c(=O)oc3c2C)OC1(C)C, which viability, T/C is on record?
**A.** The viability, T/C was 89.9%.

Same assay, conditions: second compound 3.16 µM; first compound 0.0316 µM; hits give low values

**Q.** How did the viability, T/C turn out when `COc1cc(C2c3cc4c(cc3C(OC3OC5COC(C)OC5C(O)C3O)C3COC(=O)C23)OCO4)cc(OC)c1O` (configuration not stated) + Cc1cccc(N(C)C(=O)C2C(O)CCN2c2nc(C)cc(C(F)(F)F)c2C#N)c1 was run?
**A.** Its viability, T/C is 77.9%.

**Q.** With `COc1cccc(OCCCN)c1-c1cc(Nc2cnc(C#N)cn2)n[nH]1` + COC1C(OC(N)=O)C(O)C(Oc2ccc3c(O)c(NC(=O)c4ccc(O)c(CC=C(C)C)c4)c(=O)oc3c2C)OC1(C)C as the compound, how does the viability, T/C read?
**A.** Its viability, T/C is 65.3%.

**Q.** For `CC1COCCN1c1cc(C2(S(C)(=N)=O)CC2)nc(-c2ccnc3[nH]ccc23)n1` (configuration not stated) + COC1C(OC(N)=O)C(O)C(Oc2ccc3c(O)c(NC(=O)c4ccc(O)c(CC=C(C)C)c4)c(=O)oc3c2C)OC1(C)C, which viability, T/C is on record?
**A.** Its viability, T/C is 87.1%.

From PubChem BioAssay AID1963837 (Molecular Pharmacology Branch, DTP, NCI, 2024)
